Values of other authors, collected in US12090420B2, “Systems and methods for recovering amines and their derivatives from aqueous mixtures” (INV Nylon Chemicals Americas, LLC, priority 2018, dated 2024).

details: not given

For `CCCCCCN` [Hexylamine], the “highest pKa value” is given as 10.5.

same assay, conditions: diamines

For `NCCCCN` [1,4-butanediamine], the “Higher pKa” value is listed as 11.2.

In the case of `NCCCCN` [1,4-butanediamine], the “Lower pKa” value is listed as 9.7.

same assay, conditions: diamines; 25° C.

`NCCCCCN` [1,5-pentanediamine] and `NCCCCCCN` [1,6-hexanediamine] are within 0.2 log units of each other in “Higher pKa” value: 10.93 for the first, 11.02 for the second.

`NCCCCCN` [1,5-pentanediamine] and `NCCCCCCN` [1,6-hexanediamine] are within 0.2 log units of each other in “Lower pKa” value: 10.05 for the first, 10.24 for the second.

same assay, conditions: monoamines; single pKa taken as highest pKa

Compared with `CCc1ccccn1` [2-Ethylpyridine], `Cc1cccnc1` [3-Methylpyridine] is lower in pKa: 5.89 for the first, 5.52 for the second.

First: Cc1ccncc1 [4-Methylpyridine]
Second: c1ccc2cnccc2c1 [Isoquinoline]
The pKa of the first is higher: 6.08 for the first, 5.42 for the second.

Compared with `c1ccc2c(c1)cnc1ccccc12` [Benzo[c]quinoline], `CCCCCCCN` [Heptylamine] is higher in pKa: 5.58 for the first, 10.67 for the second.

`CCCCCCCCCCCCCCCCN` [Hexadecylamine] and `CCCCCCCCCN` [Nonylamine] are within 0.2 log units of each other in pKa: 10.63 for the first, 10.64 for the second.

`CCCCCCN` [Hexylamine] and `CCCCCN` [Pentylamine] are within 0.2 log units of each other in pKa: 10.56 for the first, 10.63 for the second.

First: CCCCCCCCN [Octylamine]
Second: CC(C)CN [iso-Butylamine]
The pKa of the first is higher: 10.65 for the first, 10.43 for the second.
